According to PubChem BioAssay AID248 (DTP/NCI, 2004):
Where “and” joins values, the source holds several entries; their conditions need not be identical. Identical values can stand only once. Inconclusive results and toxic doses are left out.

Test system: L1210 leukemia ip in BDF1 mice, survival T/C
Experiment: NCI In Vivo Anticancer Drug Screen. Data for tumor model L1210 Leukemia (intraperitoneal) in B6D2F1 (BDF1) mice
Details: endpoint: mean survival time, higher = longer survival
In short: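 Read-out is survival time, reported as the treated-group measurement over the vehicle-control measurement.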

[1] = dose: 100.0 mg/kg/injection, schedule: Q04DX002 (ip), vehicle: saline
[2] = dose: 200.0 mg/kg/injection, schedule: Q04DX002 (ip), vehicle: saline
[3] = dose: 400.0 mg/kg/injection, schedule: Q04DX002 (ip), vehicle: saline
[4] = dose: 100.0 mg/kg/injection, schedule: Q01DX009 (ip), vehicle: Klucel (hydroxypropylcellulose) (HPC)
[5] = dose: 100.0 mg/kg/injection, schedule: Q01DX001 (ip), vehicle: saline
[6] = dose: 12.5 mg/kg/injection, schedule: Q04DX002 (ip), vehicle: Klucel (hydroxypropylcellulose) (HPC)
[7] = dose: 100.0 mg/kg/injection, schedule: Q01DX009 (ip), vehicle: saline
[8] = dose: 100.0 mg/kg/injection, schedule: Q04DX003 (ip), vehicle: Klucel (hydroxypropylcellulose) (HPC)
[9] = dose: 200.0 mg/kg/injection, schedule: Q04DX003 (ip), vehicle: Klucel (hydroxypropylcellulose) (HPC)
[10] = dose: 100.0 mg/kg/injection, schedule: Q04DX003 (ip), vehicle: saline
[11] = dose: 200.0 mg/kg/injection, schedule: Q04DX003 (ip), vehicle: saline

For `O=C1NCC2C3CCC(O3)C12` (configuration not stated), the T/C (dose: 50.0 mg/kg/injection, schedule: Q04DX002 (ip), vehicle: saline) was 101 % of control, the T/C [1] was 97 % of control and 103 % of control and the T/C [2] was 105 % of control. The T/C [3] was 97 % of control and 92 % of control.
`CC(=O)Oc1c(Br)c(-c2cc([N+](=O)[O-])c(C)c([N+](=O)[O-])c2C)c(OC(C)=O)c(Br)c1-c1cc([N+](=O)[O-])c(C)c([N+](=O)[O-])c1C` was tested, and the T/C (dose: 100.0 mg/kg/injection, schedule: Q01DX009 (ip), vehicle: saline with Tween-80) was 104 % of control, the T/C (dose: 200.0 mg/kg/injection, schedule: Q01DX009 (ip), vehicle: saline with Tween-80) was 91 % of control and the T/C (dose: 400.0 mg/kg/injection, schedule: Q01DX009 (ip), vehicle: saline with Tween-80) was 88 % of control.
`Cc1cccc(NC(=O)/C=C/c2ccccc2)n1` was tested, and the T/C (dose: 25.0 mg/kg/injection, schedule: Q01DX009 (ip), vehicle: Klucel (hydroxypropylcellulose) (HPC)) was 96 % of control, the T/C (dose: 50.0 mg/kg/injection, schedule: Q01DX009 (ip), vehicle: Klucel (hydroxypropylcellulose) (HPC)) was 89 % of control and the T/C [4] was 103 % of control and 91 % of control. The T/C (dose: 100.0 mg/kg/injection, schedule: Q04DX002 (ip), vehicle: Klucel (hydroxypropylcellulose) (HPC)) was 91 % of control.
For `CCCCCc1cccc(C)n1`, the T/C [5] was 96 % of control.
In the case of `Cc1ccc2cccc(O)c2n1`, the T/C [6] is reported as 94 % of control, the T/C (dose: 25.0 mg/kg/injection, schedule: Q04DX002 (ip), vehicle: Klucel (hydroxypropylcellulose) (HPC)) is reported as 88 % of control and the T/C (dose: 50.0 mg/kg/injection, schedule: Q04DX002 (ip), vehicle: Klucel (hydroxypropylcellulose) (HPC)) is reported as 102 % of control.
With `Cc1cc(N(CCOS(C)(=O)=O)CCOS(C)(=O)=O)ccc1C=Nc1ccc(-c2csc(-c3ccc(Br)cc3)n2)cc1` the T/C [7] was 109 % of control, the T/C [8] was 150 % of control and the T/C (dose: 150.0 mg/kg/injection, schedule: Q01DX009 (ip), vehicle: saline) was 101 % of control. For the same molecule, the T/C [9] was 91 % of control.
`N#CCc1ccc(-c2ccccc2)cc1` was tested, and the T/C (dose: 12.5 mg/kg/injection, schedule: Q01DX009 (ip), vehicle: saline with Tween-80) was 103 % of control, the T/C (dose: 25.0 mg/kg/injection, schedule: Q01DX009 (ip), vehicle: saline with Tween-80) was 95 % of control and the T/C (dose: 50.0 mg/kg/injection, schedule: Q01DX009 (ip), vehicle: saline with Tween-80) was 94 % of control. For the same molecule, the T/C (dose: 50.0 mg/kg/injection, schedule: Q04DX003 (ip), vehicle: saline with Tween-80) was 97 % of control, the T/C (dose: 100.0 mg/kg/injection, schedule: Q01DX001 (ip), vehicle: carboxymethylcellulose (CMC)) was 100 % of control and the T/C (dose: 100.0 mg/kg/injection, schedule: Q04DX003 (ip), vehicle: saline with Tween-80) was 93 % of control. For the same molecule, the T/C (dose: 200.0 mg/kg/injection, schedule: Q01DX001 (ip), vehicle: carboxymethylcellulose (CMC)) was 100 % of control and the T/C (dose: 400.0 mg/kg/injection, schedule: Q01DX001 (ip), vehicle: carboxymethylcellulose (CMC)) was 93 % of control.
With `Cc1cc(O)ccc1C#N` the T/C [1] was 102 % of control, the T/C [2] was 102 % of control and the T/C [3] was 104 % of control.
With `COc1ccc(CCN=Cc2ccc(Cl)cc2)cc1OC` the T/C [4] was 104 % of control, the T/C [8] was 93 % of control and the T/C (dose: 200.0 mg/kg/injection, schedule: Q01DX009 (ip), vehicle: Klucel (hydroxypropylcellulose) (HPC)) was 95 % of control. The T/C [9] was 96 % of control, the T/C (dose: 400.0 mg/kg/injection, schedule: Q01DX009 (ip), vehicle: Klucel (hydroxypropylcellulose) (HPC)) was 95 % of control and the T/C (dose: 400.0 mg/kg/injection, schedule: Q04DX003 (ip), vehicle: Klucel (hydroxypropylcellulose) (HPC)) was 103 % of control.
`C[CH2][Pb]([CH2]C)([CH2]C)[O]C(=O)CBr` was tested, and the T/C (dose: 0.78 mg/kg/injection, schedule: Q01DX009 (ip), vehicle: Klucel (hydroxypropylcellulose) (HPC)) was 92 % of control, the T/C (dose: 1.56 mg/kg/injection, schedule: Q01DX009 (ip), vehicle: Klucel (hydroxypropylcellulose) (HPC)) was 103 % of control and the T/C (dose: 3.12 mg/kg/injection, schedule: Q01DX009 (ip), vehicle: Klucel (hydroxypropylcellulose) (HPC)) was 98 % of control and 92 % of control. The T/C (dose: 3.12 mg/kg/injection, schedule: Q04DX002 (ip), vehicle: Klucel (hydroxypropylcellulose) (HPC)) was 93 % of control, the T/C (dose: 6.25 mg/kg/injection, schedule: Q04DX002 (ip), vehicle: Klucel (hydroxypropylcellulose) (HPC)) was 90 % of control and the T/C [6] was 98 % of control and 106 % of control.
`[N-]=[N+]=CC(=O)NCC(=O)NO` was tested, and the T/C (dose: 50.0 mg/kg/injection, schedule: Q01DX001 (ip), vehicle: water) was 117 % of control, the T/C (dose: 75.0 mg/kg/injection, schedule: Q01DX009 (ip), vehicle: water) was 95 % of control and the T/C (dose: 100.0 mg/kg/injection, schedule: Q01DX001 (ip), vehicle: water) was 96 % of control. The T/C (dose: 100.0 mg/kg/injection, schedule: Q01DX009 (ip), vehicle: other) was 100 % of control, the T/C (dose: 150.0 mg/kg/injection, schedule: Q01DX009 (ip), vehicle: water) was 120 % of control and the T/C (dose: 180.0 mg/kg/injection, schedule: Q01DX001 (ip), vehicle: water) was 116 % of control. For the same molecule, the T/C (dose: 200.0 mg/kg/injection, schedule: Q01DX001 (ip), vehicle: water) was 102 % of control, the T/C (dose: 200.0 mg/kg/injection, schedule: Q01DX009 (ip), vehicle: other) was 101 % of control and the T/C (dose: 270.0 mg/kg/injection, schedule: Q01DX001 (ip), vehicle: water) was 110 % of control. The T/C (dose: 270.0 mg/kg/injection, schedule: Q01DX009 (ip), vehicle: water) was 155 % of control, the T/C (dose: 300.0 mg/kg/injection, schedule: Q01DX009 (ip), vehicle: other) was 111 % of control and the T/C (dose: 300.0 mg/kg/injection, schedule: Q01DX009 (ip), vehicle: water) was 123 % of control. The T/C (dose: 400.0 mg/kg/injection, schedule: Q01DX001 (ip), vehicle: water) was 108 % of control and 111 % of control and 113 % of control, the T/C (dose: 450.0 mg/kg/injection, schedule: Q01DX008 (ip), vehicle: water) was 150 % of control and the T/C (dose: 500.0 mg/kg/injection, schedule: Q01DX009 (ip), vehicle: other) was 97 % of control. The T/C (dose: 600.0 mg/kg/injection, schedule: Q01DX009 (ip), vehicle: water) was 91 % of control and the T/C (dose: 1600.0 mg/kg/injection, schedule: Q01DX001 (ip), vehicle: water) was 90 % of control.
For `COC(=O)c1oc2cc(Cl)cnc2c1C(=O)OC`, the T/C (dose: 100.0 mg/kg/injection, schedule: Q04DX002 (ip), vehicle: saline with Tween-80) was 97 % of control, the T/C (dose: 200.0 mg/kg/injection, schedule: Q04DX002 (ip), vehicle: saline with Tween-80) was 97 % of control and the T/C (dose: 400.0 mg/kg/injection, schedule: Q04DX002 (ip), vehicle: saline with Tween-80) was 94 % of control.
In the case of `COC(=O)C1C2C3CC(C4CC43)C12` (configuration not stated), the T/C [7] is reported as 92 % of control, the T/C [10] is reported as 93 % of control and the T/C (dose: 200.0 mg/kg/injection, schedule: Q01DX009 (ip), vehicle: saline) is reported as 92 % of control. The T/C [11] was 107 % of control, the T/C (dose: 400.0 mg/kg/injection, schedule: Q01DX009 (ip), vehicle: saline) was 96 % of control and the T/C (dose: 400.0 mg/kg/injection, schedule: Q04DX003 (ip), vehicle: saline) was 96 % of control.
In the case of `CCCCCCCCCCCCCSCCCCCCCCCCCCSCCCCCCCCCCCC`, the T/C (dose: 100.0 mg/kg/injection, schedule: Q01DX001 (ip), vehicle: Klucel (hydroxypropylcellulose) (HPC)) is reported as 89 % of control, the T/C (dose: 200.0 mg/kg/injection, schedule: Q01DX001 (ip), vehicle: Klucel (hydroxypropylcellulose) (HPC)) is reported as 88 % of control and the T/C (dose: 400.0 mg/kg/injection, schedule: Q01DX001 (ip), vehicle: Klucel (hydroxypropylcellulose) (HPC)) is reported as 89 % of control.
`CC1=CC(C)(C)NC(=S)N1C` was tested, and the T/C (dose: 6.25 mg/kg/injection, schedule: Q04DX003 (ip), vehicle: saline with Tween-80) was 96 % of control, the T/C (dose: 12.5 mg/kg/injection, schedule: Q04DX003 (ip), vehicle: saline with Tween-80) was 95 % of control and the T/C (dose: 25.0 mg/kg/injection, schedule: Q04DX003 (ip), vehicle: saline with Tween-80) was 95 % of control. The T/C (dose: 166.0 mg/kg/injection, schedule: Q01DX Z (ip), vehicle: methylcellulose (MC)) was 87 % of control.
For `CCCCC[n+]1ccc(C(N)=O)cc1`, the T/C [10] was 105 % of control and the T/C [11] was 100 % of control.
In the case of `CN(C)P(Cl)(Cc1ccccc1)(c1ccccc1)c1ccccc1`, the T/C (dose: 3.12 mg/kg/injection, schedule: Q01DX009 (ip), vehicle: saline) is reported as 106 % of control, the T/C (dose: 6.25 mg/kg/injection, schedule: Q01DX009 (ip), vehicle: saline) is reported as 105 % of control and the T/C (dose: 12.5 mg/kg/injection, schedule: Q04DX003 (ip), vehicle: saline) is reported as 106 % of control.
With `CCOC(=O)C(O)(O)C(C)C` the T/C [5] was 113 % of control and the T/C (dose: 400.0 mg/kg/injection, schedule: Q01DX001 (ip), vehicle: saline) was 113 % of control.
